Measured values published in patent EP4775567A1, “IONIZABLE CATIONIC LIPID COMPOUNDS AS WELL AS PREPARATION METHOD THEREFOR AND USE THEREOF” (Scindy Pharmaceutical (Suzhou) Co., Ltd, priority 2023, dated 2025).

Tests used:
[1] = Zeta potential by electrophoretic light scattering; assay type: physicochemical; settings: luciferase mRNA lipid nanoparticles prepared from the compound; 25°C
Procedure: (§1) Luciferase mRNA was diluted in a 10-100 mM sodium citrate buffer solution at pH 4.0, with the concentration of the mRNA solution being 135 µg/ml. A mixed lipid ethanol solution was prepared at a molar ratio of ionizable cationic lipid compound (each exemplary compound) : DSPC: cholesterol : 2-[(polyethylene glycol)-2000]-N,N-ditetradecylacetamide (ALC-0159) of 50:10:38.5:1.5. The mRNA solution and the mixed lipid solution were mixed at a volume ratio of 3:1 in a nanodrug preparation device, followed by ultrafiltration to obtain luciferase mRNA lipid nanoparticles.
(§2) • 1. Determination of particle size and polydispersity index (PDI): The average particle size and PDI of the nanoparticle sample solutions in the examples were determined by dynamic light scattering using Malvern ZetaSizer Nano ZS90. The measurement angle was 90°, the refractive index of the dispersant was 1.330, and the test temperature was 25°C. • 2. Zeta potential: The Zeta potential of the nanoparticle sample solutions in the examples was determined by electrophoretic light scattering (ELS) using Malvern ZetaSizer Nano ZS90. Refractive index of the dispersant: 1.330, Test temperature: 25°C. • 3. Encapsulation Rate: The Encapsulation Rate of luciferase mRNA in lipid nanoparticles was determined using a Quant-it Ribogreen RNA quantitation kit (ThermoFisher Scientific, UK) in accordance with the manufacturer's instructions.

female Balb/c mice = assay: In vivo transfection efficiency and safety of luciferase mRNA lipid nanoparticles (whole-body live imaging); settings: tail vein injection, single dose 0.3 mpk, 6 h after administration
Procedure: as §1
6-8 week-old female Balb/c mice were used to evaluate the in vivo transfection efficiency and safety of lipid nanoparticle compositions prepared from each exemplary compound. The lipid nanoparticles prepared from each exemplary compound were administered by tail vein injection at a single dose of 0.3 mpk. At specific time points after administration (e.g., 3 h, 6 h), live imaging of the animals was performed using a PerkinElmer small animal imaging system to determine the bioluminescent signal. The whole-body live imaging of mice at 3 h/6 h after intravenous administration of luciferase mRNA lipid nanoparticles prepared from Compound 1008 is shown in Fig. 2. […] Table 3 Summary of in vitro/in vivo Activity Evaluation of Lipid Nanoparticles Prepared from Compounds

[2] = Encapsulation Rate of luciferase mRNA in lipid nanoparticles (Quant-it Ribogreen RNA kit); assay type: physicochemical; settings: luciferase mRNA in lipid nanoparticles prepared from the compound
Procedure: as §1, §2

[3] = Particle size and polydispersity index (PDI) by dynamic light scattering; assay type: physicochemical; settings: luciferase mRNA lipid nanoparticles prepared from the compound; 25°C
Procedure: as §1, §2

HEK 293T cells = assay: In vitro transfection efficiency of luciferase mRNA lipid nanoparticles (luciferase activity); assay type: cell-based; settings: for HEK 293T Cell Luciferase Activity: 100 ng dose, 96-well plate, 24 h incubation, luciferase mRNA lipid nanoparticles
Procedure: as §1
HEK-293T cells were used to evaluate the in vitro transfection efficiency of lipid nanoparticle compositions prepared from each exemplary compound. HEK293T cells were routinely cultured in DMEM + 10% FBS medium to ensure the cells were in the logarithmic growth phase. One day before transfection, the cells were seeded into a 96-well culture plate at an appropriate cell density and grown overnight. At the time of transfection, the cell confluency needed to reach 70-90%. The lipid nanoparticle compositions prepared from each exemplary compound were diluted into 4 different dose concentrations with DMEM and added to the 96-well cell culture plate, resulting in final concentrations of 400 ng, 200 ng, 100 ng and 50 ng per well, respectively. luciferase plasmid transfected using Lipofectamine 2000 was used as the positive control (PC). After incubation for 24 h in a 5% CO2 incubator at 37°C, the substrate was added to the wells, and the luciferase activity was determined using a microplate reader. […] The luciferase activity of the luciferase mRNA lipid nanoparticles prepared from Compound 1005 in HEK293T cells is shown in Fig. 1.

[4] = Apparent pKa of blank lipid nanoparticles by TNS fluorescence; assay type: physicochemical; settings: compound:DSPC:cholesterol:ALC-0159 50:10:38.5:1.5, pH 2 to 11
Procedure: The apparent pKa of lipid nanoparticles is correlated with the efficacy of lipid nanoparticles in delivering nucleic acids (see Jayaraman et al., Angewandte Chemie, International Edition (2012), 51(34), 8529-8533; Semple et al., Nature Biotechnology 28, 172-176 (2010)). The apparent pKa of nanoparticles prepared from different lipid compounds was determined using fluorescence based on 2-(p-toluidino)-6-naphthalenesulfonic acid (TNS). The fluorescent probe has no fluorescence in water but […] emits fluorescence when bound to lipid membranes. Blank lipid nanoparticles were prepared at a molar ratio of ionizable cationic lipid compound (each exemplary compound) : DSPC : cholesterol : 2-[(polyethylene glycol)-2000]-N,N-ditetradecylacetamide (ALC-0159) of 50:10:38.5:1.5. They were diluted in different pH buffer solutions having a pH ranging from 2 to 11. An aqueous TNS solution was added and mixed. Then, the mixtures were added to a 96-well plate (black bottom), respectively. Detection was performed with excitation wavelength at 325 nm and the emission wavelength at 435 nm, with top detection. Measurement was performed 10 times for each well, and the fluorescence intensity was recorded. A pH-fluorescence intensity curve was plotted to determine the apparent pKa.

SMILES | Zeta Potential [1] | Mouse Whole-Body Average Fluorescence Signal (female Balb/c mice) | Encapsulation Rate [2] | Particle Size [3] | Polydispersity Index (PDI) [3] | HEK 293T Cell Luciferase Activity (HEK 293T cells) | Apparent pKa [4] | fluorescence intensity of luciferase expressed in HEK 293T cells (HEK 293T cells; different doses (50-400 ng per well), Fig. 1)
CCCCCCCCCCCCCCCC(CC)C(=O)OCC(COC(=O)C(CC)CCCCCCCCCCCCCCC)(COC(=O)C(CC)CCCCCCCCCCCCCCC)NCCC(=O)NCCN(CCO)CCO (racemic) [Compound 1014] | 3.06 mV | 3.55×10^4 p/s/cm^2/sr | 70.3% | 85.4 nm | 0.111 | 2.86×10^6 RLU |  | 
CCCCCCCCCC(CCCCCCCC)C(=O)OCC(COC(=O)C(CCCCCCCC)CCCCCCCCC)(COC(=O)C(CCCCCCCC)CCCCCCCCC)NCCN(C)CCCCO (racemic) [Compound 3425] | -21.2 mV | 1.56×10^7 p/s/cm^2/sr | 89.4% | 82.37 nm | 0.021 | 6.86×10^6 RLU |  | 
CCCCCCCCCCCCCCCC(CC)C(=O)OCC(COC(=O)C(CC)CCCCCCCCCCCCCCC)(COC(=O)C(CC)CCCCCCCCCCCCCCC)NC(=O)CN (stereo not shown) [Compound 1003] | -3.64 mV |  | 95.4% | 62.59 nm | 0.127 |  |  | 
CCCCCCCCCCCCCCCC(CC)C(=O)OCC(COC(=O)C(CC)CCCCCCCCCCCCCCC)(COC(=O)C(CC)CCCCCCCCCCCCCCC)NCCC(=O)NCCN(C)C (stereo not shown) [Compound 1005] | -0.105 mV | 1.21×10^6 p/s/cm^2/sr | 91.7% | 55.44 nm | 0.076 | 1.01×10^8 RLU | 6.10 | > 10^7 RLU
CCCCCCCCCCCC(CCCCCC)C(=O)OCC(COC(=O)C(CCCCCC)CCCCCCCCCCC)(COC(=O)C(CCCCCC)CCCCCCCCCCC)NCCC(=O)NCCN(C)C (stereo not shown) [Compound 1007] | -4.98 mV | 1.34×10^6 p/s/cm^2/sr | 95.9% | 85.78 nm | 0.068 | 1.60×10^5 RLU | 5.13 | 
CCCCCCCCCC(CCCCCCCC)C(=O)OCC(COC(=O)C(CCCCCCCC)CCCCCCCCC)(COC(=O)C(CCCCCCCC)CCCCCCCCC)NCCC(=O)NCCN(C)C (stereo not shown) [Compound 1008] | -6.06 mV | 7.66×10^5 p/s/cm^2/sr | 95.1% | 73.49 nm | 0.019 | 1.86×10^6 RLU | 6.14 | 
CCCCCCCCCCCCCCCC(CC)C(=O)OCC(COC(=O)C(CC)CCCCCCCCCCCCCCC)(COC(=O)C(CC)CCCCCCCCCCCCCCC)NCCC(=O)NCCN(CCCO)CCCO (stereo not shown) [Compound 1015] | 4.27 mV | 1.43×10^4 p/s/cm^2/sr | 80.3% | 102.3 nm | 0.136 | 6.27×10^7 RLU |  | 
CCCCCCCCCCCCCCCC(CC)C(=O)OCC(COC(=O)C(CC)CCCCCCCCCCCCCCC)(COC(=O)C(CC)CCCCCCCCCCCCCCC)NCCC(=O)NCCN(C)CCO (stereo not shown) [Compound 1025] | 2.84 mV | 4.20×10^5 p/s/cm^2/sr | 64.5% | 77.74 nm | 0.072 |  |  | 
CCCCCCCCCC(CCCCCCCC)C(=O)OCC(COC(=O)C(CCCCCCCC)CCCCCCCCC)(COC(=O)C(CCCCCCCC)CCCCCCCCC)NCCC(=O)NCCN1CCNCC1 (stereo not shown) [Compound 1111] | -0.902 mV | 3.10×10^5 p/s/cm^2/sr | 83.2% | 110.3 nm | 0.103 | 3.29×10^4 RLU |  | 
CCCCCCCCCC(CCCCCCCC)C(=O)OCC(COC(=O)C(CCCCCCCC)CCCCCCCCC)(COC(=O)C(CCCCCCCC)CCCCCCCCC)NCCC(=O)NCCN(C)CCn1cnc2c(N)ncnc21 (stereo not shown) [Compound 1139] | -7.8 mV | 3.87×10^5 p/s/cm^2/sr | 91.1% | 74.13 nm | 0.064 | 4.23×10^5 RLU |  | 
CCCCCCCCCCCCCCCC(CC)C(=O)OCC(COC(=O)C(CC)CCCCCCCCCCCCCCC)(COC(=O)C(CC)CCCCCCCCCCCCCCC)NCCC(=O)NCCN(C)CCNC(=N)N (stereo not shown) [Compound 1140] | 4.39 mV | 6.21×10^4 p/s/cm^2/sr | 92.4% | 63.21 nm | 0.127 | 2.13×10^4 RLU |  | 
CCCCCCCCCC(CCCCCCCC)C(=O)OCC(COC(=O)C(CCCCCCCC)CCCCCCCCC)(COC(=O)C(CCCCCCCC)CCCCCCCCC)NC(=O)CNCCN(C)CCCCO (stereo not shown) [Compound 3423] | -18.6 mV | 5.53×10^5 p/s/cm^2/sr | 96.0% | 87.5 nm | 0.086 | 3.97×10^5 RLU |  | 
CCCCCCCCCCCCCCCC(CC)C(=O)OCC(COC(=O)C(CC)CCCCCCCCCCCCCCC)(COC(=O)C(CC)CCCCCCCCCCCCCCC)NCCN(C)CCCCO (stereo not shown) [Compound 3424] | -0.327 mV | 9.34×10^4 p/s/cm^2/sr | 88.9% | 94.71 nm | 0.115 | 1.81×10^4 RLU |  | 
CCCCCCCCCCCCCCCC(CC)C(=O)OCC(COC(=O)C(CC)CCCCCCCCCCCCCCC)(COC(=O)C(CC)CCCCCCCCCCCCCCC)NCCCCCCN(C)CCCCO (stereo not shown) [Compound 3426] | 2.23 mV | 5.67×10^6 p/s/cm^2/sr | 95.5% | 85.51 nm | 0.104 | 3.01×10^5 RLU |  | 
CCCCCCCCCCCCCCCC(CC)C(=O)OCC(COC(=O)C(CC)CCCCCCCCCCCCCCC)(COC(=O)C(CC)CCCCCCCCCCCCCCC)NC(=O)CNCCN(C)CCCCO (stereo not shown) [Compound 3427] | 3.8 mV | 8.24×10^6 p/s/cm^2/sr | 96.1% | 70.81 nm | 0.126 | 5.18×10^5 RLU |  | 
CCCCCCCCCC(CCCCCCCC)C(=O)OCC(COC(=O)C(CCCCCCCC)CCCCCCCCC)(COC(=O)C(CCCCCCCC)CCCCCCCCC)NCCCCN(C)CCCCO (stereo not shown) [Compound 3428] | -17.8 mV | 2.04×10^5 p/s/cm^2/sr | 96.6% | 83.84 nm | 0.046 | 3.23×10^5 RLU |  | 
